Results published in PubChem BioAssay AID1996.
Values after ≈ are worked out from the molar mass of the structure shown.

Conditions: buffer; pH 7.4; 200.0 µM

| SMILES | solubility kinetic [µg/mL] |
| --- | --- |
| O=C(Cc1ccc(Cl)c(Cl)c1)Nc1cccnc1 | > 42.2 |
| COc1ccc(S(=O)(=O)N(C)CC(=O)N2CCCC2)cc1OC | > 51.4 |
| CC(=O)CCc1ccc(OCCCOc2cccc3cccnc23)cc1 | 25.5 (≈ 73 µM) |
| CC(NC(=O)c1ccc(Br)o1)C1CCCO1 (configuration not stated) | > 43.2 |
| Cn1c(SCc2c(F)cccc2Cl)nc2c(c1=O)SCC2 | 6.1 (≈ 17.8 µM) |
| CC(NC(=O)CN(C)CC(=O)Nc1cccc(F)c1)c1ccccc1 (configuration not stated) | > 51.5 |
| Cc1ccc2[nH]c(C)c(CC(=O)NCc3ccccc3)c2c1 | > 43.9 |
| Cc1ccc(C)c(OCC(O)CNC2CCCC2)c1.Cl (configuration not stated) | > 45 |
| COc1ccc(S(=O)(=O)N2CCCCC2)cc1NC(=O)COC(=O)c1ccco1 | 5.8 (≈ 13.7 µM) |
| COCCNC(=O)CSc1nccn1Cc1ccc2c(c1)OCO2 | > 52.4 |
| O=C(CSc1ccccn1)NC1CCCC1 | > 35.4 |
| CCOC(=O)C1(CC2CC2)CCN(Cc2cnc(N(C)C)s2)CC1 | 46.1 (≈ 131 µM) |
| Cc1ccc(CCCOC(=O)CN2CCCCC2)cc1 | 23.5 (≈ 85.3 µM) |
| S=C1NCN(Cc2ccccc2)CN1 | > 31.1 |
| CCOc1ccc2[nH]c3c(NCC(C)C)ncnc3c2c1 | 5.1 (≈ 17.9 µM) |
| NC(=O)C1CC(=O)N(c2ccc(OCC(=O)NCc3ccccc3)cc2)C1 (configuration not stated) | > 55.1 |
| O=C(OCN1C(=O)c2ccccc2C1=O)c1cccc(OC(F)F)c1 | 0.9 (≈ 2.59 µM) |
| Cc1csc2c(=O)n(CCO)c(=O)[nH]c12 | > 33.9 |
| CC(=O)Nc1nonc1NC(=O)COc1ccccc1 | > 41.4 |
| Clc1ccc(-c2nc(C3CCCCC3)no2)cc1 | < 0.3 |
| N#Cc1ccc(Cn2cc(C=O)c3ccccc32)cc1 | 4 (≈ 15.4 µM) |
| COc1ccc(CN(C)C(=O)COC(=O)c2cc([N+](=O)[O-])ccc2N2CCCC2)c(OC)c1OC | 10.2 (≈ 20.9 µM) |

| SMILES | solubility kinetic [µg/mL] |
| --- | --- |
| CN(C(=O)Cn1cnc2sccc2c1=O)C1CCCCC1 | > 45.8 |
| CC(C)(C)NC(=O)NC(=O)CN1CCN(c2ccccc2)CC1 | > 47.8 |
| Fc1ccccc1-c1nc(NCc2ccccc2)c2ccccc2n1 | 3.1 (≈ 9.41 µM) |
| O=C(CNC(=O)c1ccccc1Cl)Nc1ccncc1 | > 43.5 |
| Cc1ccsc1C(=O)NCC(=O)OCc1ccccc1 | > 43.4 |
| CC(C(=O)Nc1ccc(C#N)cc1)N(C)CC(=O)Nc1cccc(F)c1 (configuration not stated) | 5.9 (≈ 16.6 µM) |
| OCCCN=C1CCCc2c1[nH]c1ccc(Cl)cc21 | 14.4 (≈ 52 µM) |
| Cc1cccc(S(=O)(=O)Nc2cc(Cl)ccc2N2CCOCC2)c1 | 3.6 (≈ 9.81 µM) |
| O=C(NCC(c1ccco1)N1CCCCC1)c1cccnc1 (configuration not stated) | > 44.9 |
| Cc1ccc2[nH]c3c(c2c1)CN(C(=O)CN1CCCCC1)CC3 | 41.8 (≈ 134 µM) |
| CCCOc1ccc2ccccc2c1/C=C1\SC(=O)NC1=O | > 47 |
| Cl.N=c1n(CCO)c2ccccc2n1CCN1CCCCC1 | > 48.7 |
| Cc1cccc(OCCCCCN2CCOCC2)c1 | 29.9 (≈ 114 µM) |
| Cc1cccc(C(=O)NC(C)c2ccc(-n3ccnc3)cc2)c1C (configuration not stated) | 43 (≈ 135 µM) |
| COC(=O)c1sc2nc3c(cc2c1N)CCCC3 | 2 (≈ 7.62 µM) |
| C=CC[n+]1cccc(-c2cc3ccc(C)cc3[nH]2)c1.[Br-] | > 49.4 |
| O=C(NN=C1CCCCCCC1)c1ccc(F)cc1 | > 39.3 |
| Cc1cc(=O)[nH]c(SCC(=O)Nc2ccccc2[N+](=O)[O-])n1 | > 48 |
| Fc1ccc(-c2cnc3n2CCCCC3)cc1 | > 34.5 |
| Cc1nc(Nc2nc3ccccc3o2)nc(C)c1C | 15.8 (≈ 62.1 µM) |
| COc1cc2ccccc2cc1C(=O)N1CC(C)CC(C)C1 (configuration not stated) | > 44.6 |
| Cc1[nH]c2ccccc2c1C(=O)C(=O)Nc1ccc2c(c1)OCCO2 | 1.9 (≈ 5.65 µM) |

| SMILES | solubility kinetic [µg/mL] |
| --- | --- |
| CN(C(=O)c1c[nH]c(=O)cc1C(F)(F)F)c1ccc(Cl)c(Cl)c1 | 40.8 (≈ 112 µM) |
| CNC(=O)c1sc(-c2ccccn2)nc1C | > 35 |
| O=S(=O)(Nc1ccccc1O)c1cccc2cccnc12 | 43 (≈ 143 µM) |
| CC1CCCC(C)N1C(=O)COC(=O)CN1C(=O)c2ccccc2C1=O (configuration not stated) | > 53.8 |
| FCCCOc1ccc(CN2CCN(c3ccccc3F)CC2)cc1 | 19.5 (≈ 56.3 µM) |
| c1csc(-c2nc3ccccc3s2)c1 | 0.7 (≈ 3.22 µM) |
| CC(OC(=O)C1CCC1)C(=O)Nc1cc(Cl)cc(Cl)c1 (configuration not stated) | 2.4 (≈ 7.59 µM) |
| Cc1ccc(CNc2nc3ccccc3n2C)cc1 | > 37.7 |
| CCC(Oc1ccccc1OC)C(=O)Nc1ccc2c(c1)n(C)c(=O)n2C (configuration not stated) | > 55.4 |
| CN(C)Cc1ccc(CNC(=O)COc2ccc3ccccc3c2)cc1 | 44.7 (≈ 128 µM) |
| S=C(Nc1ccccc1Cl)N1CCN(c2ccccn2)CC1 | 2.3 (≈ 6.91 µM) |
| O=C(Nc1ccccc1)c1ccccc1C(=O)N1CCCCC1 | 42.6 (≈ 138 µM) |
| Cc1ccc(S(=O)(=O)N2CCCCC2)cc1NS(=O)(=O)c1ccccc1F | > 61.9 |
| O=C1CCC(C(=O)Nc2ccc(Cl)cc2)N1 (configuration not stated) | > 35.8 |
| CCc1cc(Cl)c(OC)c(C(=O)NC[C@@H]2CCCN2CC)c1O.Cl | > 56.6 |
| S=C(NCc1ccco1)N1CCC(c2nc3ccccc3o2)CC1 | 11.3 (≈ 33.1 µM) |
| COC(=O)c1cccnc1NC(=S)NC1CCCCC1 | 0.9 (≈ 3.07 µM) |
| O=C(CCSCc1ccc(Cl)cc1)NCc1cccs1 | 28.3 (≈ 86.8 µM) |
| Cc1ccc(C(=O)NC(=S)NCC2CCCO2)cc1[N+](=O)[O-] (configuration not stated) | > 48.5 |
| COc1cc(=O)[nH]c(SC(C)C(=O)Nc2cccc3ccccc23)n1 (configuration not stated) | 0.9 (≈ 2.53 µM) |
| Fc1ccccc1CN1CCN(c2ccc(Cl)cc2)CC1 | 1 (≈ 3.28 µM) |
| O=C(CN1C(=O)C2CCCCC2C1=O)Nc1ccccc1C(=O)O (configuration not stated) | > 49.6 |

| SMILES | solubility kinetic [µg/mL] |
| --- | --- |
| Cn1c(=O)c2[nH]c(-c3ccc(S(=O)(=O)O)cc3)nc2n(C)c1=O.O | > 53.2 |
| COc1ccc(CCNC(=O)c2cccs2)cc1 | 38.7 (≈ 148 µM) |
| CCCCN1C(=O)C(C)=C(C)C1OCCc1ccc(OC)c(OC)c1 (configuration not stated) | 50.5 (≈ 145 µM) |
| CC1CCCC(NC(=O)COC(=O)/C=C/c2ccc([N+](=O)[O-])cc2)C1C (configuration not stated) | 4.8 (≈ 13.3 µM) |
| Cc1ccc(S(=O)(=O)N2CCCCC2)cc1C(=O)NCc1ccccn1 | 52 (≈ 139 µM) |
| O=c1ccc2ccccc2n1Cc1cccc(F)c1 | > 38 |
| Cc1ccc(Nc2cc(C)nc(-c3ccccc3)n2)cc1 | 5.2 (≈ 18.9 µM) |
| COCc1cc(OC)nc(-c2csc(C)n2)n1 | 32.5 (≈ 129 µM) |
| Cc1ccc(CNC(=O)CN2CCN(c3ccc(F)cc3)CC2)cc1 | > 51.2 |
| C=CCOc1ccccc1NC(=O)CN1C(=O)CNC1=O | > 43.4 |
| COc1ccc(-c2cc(-c3ccccc3)c(C#N)c(=S)[nH]2)cc1 | 3.2 (≈ 10.1 µM) |
| N#CCCN(C(=O)COC(=O)c1ccc(S(=O)(=O)N2CCOCC2)cc1)c1ccccc1 | 8.2 (≈ 17.9 µM) |
| Cc1cc2ccc3ccccc3c2cc1CN(C)C.Cl | 24.5 |
| CC1(CCl)CN1S(=O)(=O)c1ccccc1 (configuration not stated) | 30.8 (≈ 125 µM) |
| COc1ccc(S(=O)(=O)N2CCOCC2)cc1NC(=O)COC(=O)c1ccc([N+](=O)[O-])s1 | 14 (≈ 28.8 µM) |
| CCc1noc(C)c1C(=O)Nc1nc(-c2ccccc2)cs1 | 5 (≈ 16 µM) |
| CCOC(=O)N1CCN(C(=O)CCc2ccccc2)CC1 | > 43.6 |
| CCn1c(CNC(=O)c2cccnc2)cc2ccccc21 | > 41.9 |
| Oc1ccc(-c2nccc(-c3ccc(F)cc3)n2)cc1 | 2.1 (≈ 7.89 µM) |
| O=C(NC(=S)Nc1ccc2ncccc2c1)c1ccccc1 | 1.4 (≈ 4.55 µM) |
| Cc1cccc(N2CCN(CC3CCCCC3)CC2)c1C | 2.9 (≈ 10.1 µM) |
